Assay results taken from US20200023001A1, “GlycoFix (Structurally And Functionally Repaired Endothelial Glycocalyx)” (Northeastern University, priority 2018, published 2020).
“And” between values parts separate entries of the source, which are not always exact repeats. Equal values may be shown once.

Assays:
Assay type in all cases: cell-based, rat
[1] = test system: Cx-containing gap junctions of RFPEC; test: Lucifer Yellow scratch-loading dye transfer assay (gap junction communication)
Description: (§1) Cell Culture. Rat fat pad ECs (RFPEC) at passages 20 to 39 were offspring of cells isolated from rat epididymal fat pad and provided by Dr. Mia Thi of Albert Einstein College of Medicine (Bronx, N.Y.). […] The RFPECs are immortalized, making it possible to use late passages. RFPEC were seeded on 12-14-mm diameter and 0.13-0.17-mm thick glass coverslips at a seeding density of 15,000-20,000 cells/cm^2. Cells were cultured in Dulbecco's Modified Eagle Medium (DMEM, Invitrogen, USA) with 1% penicillin-streptomycin (PS) and 10% fetal bovine serum (FBS, Gibco Life Technologies). Cells were maintained in humidity at 37° C. and 5% CO2. RFPECs reached full confluence in 3 days.
(§2) Cultured RFPECs produce thick and robust GCX in this time period. At 3 days post-seeding the RFPECs' culture medium was supplemented with 1% BSA in place of FBS to stabilize the GCX during preservation and immunolabeling (described below). For enzyme treatment experiments, 25 micro-international units per milliliter (μIU/ml) of heparinase III (Hep III; IBEX, Canada) were added to BSA-containing culture media for 2 hours to degrade HS from the GCX [46]. HepIII was washed out, and the wash-out was followed by a 16-hour incubation of RFPECs in regular BSA-containing media. In self-recovery experiments, RFPEC GCX was left to recover for 24 hours after enzyme degradation. The time frame was chosen in accordance with the 20-hour time period that is required for HS restoration to occur on the surface of ECs. For HS recovery experiments, exogenous HS and/or S1P were applied for 16 hours to accommodate the communication test as an assessment of functional glycocalyx recovery. […] After HS was degraded with HepIII, it was replaced by a 16-hour feeding of RFPECs with 59 μg/ml exogenous porcine mucosal HS (Celsus, Cincinnati, Ohio), based on published serum concentration of HS [43]. In sphingosine-1-phosphate experiments, culture media containing enzyme was substituted for media containing either 10 μM of S1P (Sigma-Aldrich) or a combination of 59 μg/ml of HS and 10 μM of S1P for 16 hours after enzyme degradation.
Dye transfer assay, fluorescence microscopy and image analysis. Gap junction functionality was assessed by loading Lucifer Yellow in RFPECs, using a scratch technique, and observing the extent of Lucifer Yellow transfer from loaded cells to neighboring cells (FIG. 7B). Lucifer Yellow has a molecular weight of 457.3 and can only enter cells via broken membranes or via gap junctions. The scratch loading technique involved pre-incubation of RFPECs (for 1 minute) with calcium- and magnesium-free Hanks' Balanced Salt Solution (HBSS; Life Technology) containing 5 mg/ml Lucifer Yellow dye (Life Technology). A 5-μm diameter tip scribe (Ted Pella, Inc, USA) was then used to carefully create a straight scratch in the RFPEC monolayer and to allow the dye to enter the scratched cells. After the dye was loaded, it spread via open gap junctions to adjacent intact cells, with the extent of Lucifer Yellow spread reaching a plateau by 10 minutes after loading. At that point, excess dye was washed out and RFPECs were imaged at 10× magnification (dry objective) using a Zeiss Observer Z1 fluorescence microscope. From recorded images of dye transfer after scratch loading, ImageJ randomly selected dye spread locations that would be quantified along the scratch. At those random locations, lines perpendicular to the scratch axis were drawn, and the intact fluorescent cells (scratched cells excluded) were counted. […]

Cx43 at RFPEC borders = test: Cx43 expression at EC borders, immunostaining and confocal microscopy
Description: as §1, §2
As specified by the manufacturer, the HS antibody reacts with many types of heparan sulfate. The reactivity of the HS antibody is abolished after treatment with Hep III, indicating antibody specificity. For secondary detection of HS, Alexa Flour 488 conjugated goat anti-mouse IgG/IgM (H+L; Life Technologies) secondary antibody was used. RFPECs to be processed for connexin 43 (Cx43) were fixed in 4% paraformaldehyde, permeabilized in 0.2% Triton X-100 (Fisher), and blocked in 5% goat serum combined with 0.2% Triton X-100. Connexin 43 staining was performed overnight at 4° C. with 1:100 mouse monoclonal Cx43 antibody (Millipore). […] Secondary Cx43 detection was done with Alexa Flour 488 conjugated goat anti-mouse IgG. […] These controls confirmed that the staining observed in the RFPECs is not an artefact.
Confocal immunofluorescence microscopy imaging and analysis. Alexa Fluor 488 fluorescent RFPECs were mounted with Vectashield containing DAPI (Vector Labs) and imaged with a Zeiss LSM 700 laser scanning confocal microscope. HS and Cx43 were imaged at 63× magnification (oil objective) and 40× magnification (oil objective), respectively. Lasers with excitation wavelengths of 490 nm (for HS or Cx43) and 350 nm (for DAPI) were used to obtain XY-plane slices. Laser gain and transmission were kept below fluorophore saturation levels. Confocal slice intervals were 0.2 μm for HS and 0.7 μm for Cx43. […]

[2] = test system: heparan sulfate (HS) of RFPEC glycocalyx; test: HS expression (coverage) in RFPEC glycocalyx by immunofluorescence confocal microscopy (Example 1)
Description: as §1, §2
Immunostaining. RFPECs have high affinity to most antibodies that are available for performing immunocytochemistry. For heparan sulfate (HS), RFPEC monolayers were treated with 2% paraformaldehyde/1% glutaraldehyde in phosphate buffered saline (PBS) for fixation, treated with 2% goat serum in PBS to block non-specific ligands, and stained for three nights at 4° C. with a 1:100 10E4-epitope HS antibody (Amsbio).
As specified by the manufacturer, the HS antibody reacts with many types of heparan sulfate. The reactivity of the HS antibody is abolished after treatment with Hep III, indicating antibody specificity. […]

[3] = RFPEC, Hep III, then 16 h with or without 59 μg/ml HS and/or 10 μM S1P, mean±SEM
[4] = after Hep III, HS 59 μg/ml, S1P 10 μM

Substance: heparan sulfate [HS]
- Lucifer Yellow dye spread, neighboring cells receiving dye per scratch-loaded cell [1, 3]: 1.03±0.07 cells
- Lucifer Yellow dye transfer, result in words (FIG. 4 legend) [1, 4]: Not much Lucifer Yellow dye transfer improvement
- Cx43 distribution along the perimeter of the cells (Cx43 at RFPEC borders; [3]): 46% and 46.45±4.21%
- Cx43 distribution/expression, result in words (FIG. 3 legend) (Cx43 at RFPEC borders; [4]): partially restored
- Cx43 recovery at cell borders, % of baseline conditions (Cx43 at RFPEC borders; treatment after enzymatic HS degradation): approximately 80%
- HS expression in GCX, result in words (FIG. 2 legend) ([2]; 25 μIU/ml Hep III, HS 59 μg/ml, S1P 10 μM): significant recovery of HS back to baseline conditions
- HS coverage of cell surfaces ([2]; RFPEC, Hep III 2 hours, probed 16 hours after, with or without 59 μg/ml exogenous HS and/or 10 μM S1P for the 16 hours, mean±SEM): 65.58±2.26%
